Experiments:
[1] = biological target: T1, Metabotropic glutamate receptor 4 (Homo sapiens, UniProt Q14833); experiment: Positive allosteric modulation of human mGluR4 expressed in CHO cells co-expressing Gqi5 assessed as increase in glutamate-induced calcium flux at 30 uM preincubated for 2.5 mins followed by glutamate addition by Fluo-4-AM dye based fluorescence assay relative to PHCCC; assay type: functional, cell-based
[2] = Fraction unbound in rat plasma; assay type: ADME, cell-free
[3] = Clearance in rat liver microsomes; assay type: ADME, microsome
[4] = Plasma concentration in rat at 10 mg/kg, po after 1 hr; assay type: ADME, organism-based
Cytochrome P450 1A2 = biological target: T2, Cytochrome P450 1A2 (Homo sapiens, UniProt P05177); experiment: Inhibition of CYP1A2 in human liver microsomes; assay type: ADME
T2 sequence (P05177 whole entry): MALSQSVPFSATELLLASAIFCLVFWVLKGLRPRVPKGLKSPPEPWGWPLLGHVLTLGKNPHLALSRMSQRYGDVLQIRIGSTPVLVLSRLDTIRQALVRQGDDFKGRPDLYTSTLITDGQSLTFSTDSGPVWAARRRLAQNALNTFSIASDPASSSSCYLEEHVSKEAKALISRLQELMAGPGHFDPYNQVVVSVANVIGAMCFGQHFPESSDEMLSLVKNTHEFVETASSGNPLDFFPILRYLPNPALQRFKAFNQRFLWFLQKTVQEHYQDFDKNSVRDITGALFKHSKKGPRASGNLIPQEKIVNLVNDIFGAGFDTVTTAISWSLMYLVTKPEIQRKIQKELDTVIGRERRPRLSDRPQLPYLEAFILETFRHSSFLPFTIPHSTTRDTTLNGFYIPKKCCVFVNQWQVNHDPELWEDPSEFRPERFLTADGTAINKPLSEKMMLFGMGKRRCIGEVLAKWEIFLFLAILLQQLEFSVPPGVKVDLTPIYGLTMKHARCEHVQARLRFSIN

[5] = Brain to plasma partition coefficient, Kp of the compound in rat at 10 mg/kg, po after 1 hr; assay type: ADME, organism-based; conditions: brain and plasma
MDR1 (P-gp) = experiment: Efflux ratio of permeability in MDCK-MDR1 cells; assay type: ADME, cell-based, Canis lupus familiaris; conditions: dog
[6] = Drug uptake in rat brain at 10 mg/kg, po after 1 hr; assay type: ADME, organism-based; conditions: read-out: Drug uptake
[7] = biological target: T3, CYP1A2 (induction through the aryl hydrocarbon receptor, AhR) (Homo sapiens, UniProt P35869); experiment: Activation of human AhR assessed as induction of CYP1A2 relative to control; assay type: ADME; conditions: read-out: FC
T3 sequence (P35869 whole entry): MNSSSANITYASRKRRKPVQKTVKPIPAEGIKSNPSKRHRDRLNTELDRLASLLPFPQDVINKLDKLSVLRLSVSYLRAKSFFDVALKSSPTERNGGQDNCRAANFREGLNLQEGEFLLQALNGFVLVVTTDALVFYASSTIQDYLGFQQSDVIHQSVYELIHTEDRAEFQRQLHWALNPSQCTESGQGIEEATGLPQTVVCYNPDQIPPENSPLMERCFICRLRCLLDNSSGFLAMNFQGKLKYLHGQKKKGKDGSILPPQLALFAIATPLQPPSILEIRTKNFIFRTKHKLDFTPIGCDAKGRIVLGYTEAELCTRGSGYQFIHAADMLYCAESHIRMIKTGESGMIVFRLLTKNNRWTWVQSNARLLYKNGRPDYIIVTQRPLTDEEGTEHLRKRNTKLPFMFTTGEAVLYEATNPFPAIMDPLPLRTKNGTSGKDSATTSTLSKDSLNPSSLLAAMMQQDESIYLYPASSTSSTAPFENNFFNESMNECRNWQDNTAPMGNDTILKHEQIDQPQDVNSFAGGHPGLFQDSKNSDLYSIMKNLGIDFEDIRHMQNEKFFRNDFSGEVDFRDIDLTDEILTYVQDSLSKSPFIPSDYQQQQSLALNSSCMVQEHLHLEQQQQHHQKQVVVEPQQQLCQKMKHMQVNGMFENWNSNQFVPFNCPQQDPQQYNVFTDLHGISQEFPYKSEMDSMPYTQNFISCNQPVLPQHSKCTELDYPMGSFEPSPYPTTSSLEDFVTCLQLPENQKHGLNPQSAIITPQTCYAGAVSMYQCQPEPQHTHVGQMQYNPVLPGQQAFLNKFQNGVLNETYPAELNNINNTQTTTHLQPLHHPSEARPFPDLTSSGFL

[8] = Unbound brain to plasma concentration ratio in rat at 10 mg/kg, po after 1 hr; assay type: ADME, organism-based; conditions: brain and plasma, read-out: K(p,uu,brain)
[9] = Fraction unbound in human plasma; assay type: ADME, cell-free
[10] = biological target: T1, Metabotropic glutamate receptor 4; experiment: Positive allosteric modulation of human mGluR4 expressed in CHO cells co-expressing Gqi5 assessed as increase in glutamate-induced calcium flux preincubated for 2.5 mins followed by glutamate addition by Fluo-4-AM dye based fluorescence assay; assay type: functional, cell-based

T1 sequence (Q14833 whole entry): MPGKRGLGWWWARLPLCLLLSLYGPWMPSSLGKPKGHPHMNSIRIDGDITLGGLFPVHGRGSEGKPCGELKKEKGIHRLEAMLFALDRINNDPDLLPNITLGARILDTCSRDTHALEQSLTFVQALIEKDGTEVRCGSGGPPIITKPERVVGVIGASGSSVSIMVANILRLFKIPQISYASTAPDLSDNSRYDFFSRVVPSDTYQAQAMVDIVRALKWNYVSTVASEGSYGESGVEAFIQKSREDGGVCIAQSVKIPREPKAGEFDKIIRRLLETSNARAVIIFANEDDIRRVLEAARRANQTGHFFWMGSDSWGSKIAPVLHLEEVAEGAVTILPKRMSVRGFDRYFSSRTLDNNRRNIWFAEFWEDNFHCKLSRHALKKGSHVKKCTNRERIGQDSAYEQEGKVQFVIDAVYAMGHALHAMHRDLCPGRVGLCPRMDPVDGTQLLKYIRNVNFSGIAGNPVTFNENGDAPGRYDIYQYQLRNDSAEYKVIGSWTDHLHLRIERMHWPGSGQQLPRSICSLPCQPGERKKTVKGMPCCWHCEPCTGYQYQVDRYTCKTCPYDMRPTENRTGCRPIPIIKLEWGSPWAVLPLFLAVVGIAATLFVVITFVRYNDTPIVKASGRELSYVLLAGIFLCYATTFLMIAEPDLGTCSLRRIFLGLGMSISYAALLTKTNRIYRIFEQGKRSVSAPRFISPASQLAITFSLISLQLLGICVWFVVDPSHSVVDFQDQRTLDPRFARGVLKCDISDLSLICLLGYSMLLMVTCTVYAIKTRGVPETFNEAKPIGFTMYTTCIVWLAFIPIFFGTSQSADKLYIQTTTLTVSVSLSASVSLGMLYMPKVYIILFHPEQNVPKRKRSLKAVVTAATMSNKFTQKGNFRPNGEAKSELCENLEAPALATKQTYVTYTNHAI

| SMILES | Emax [1] [%] | EC50 ([10]; read-out: EC50) [nM] | also measured |
| --- | --- | --- | --- |
| CCn1nc(C2CC2)c2ccc(Nc3n[nH]c4ncccc34)cc21 | – | – | Emax ([1]; tested as the 2H-labelled form): 75.7% |
| Cn1nc(C2CC2)c2ccc(Nc3n[nH]c4cccnc34)cc21 | 88.7 | 43 | fraction unbound [2]: 0.024; CLhep predicted [3]: 21.5 mL/min/kg; concentration at 1 h [4]: 787 ng/mL; IC50 (Cytochrome P450 1A2): 350 nM; Kp at 1 h [5]: 1.04; efflux ratio (MDR1 (P-gp)): 1.2; concentration at 1 h [6]: 816 ng/g; fold induction [7]: 2.3; Kp uu at 1 h [8]: 0.3; fraction unbound [9]: 0.022 |
| Cn1nc(C(=O)NC2CCC2)c2ccc(Nc3n[nH]c4cccnc34)cc21 | 70.3 | 653 | – |
| Cn1nc(C2(C)CC2)c2ccc(Nc3n[nH]c4ncccc34)cc21 | 84 | 129 | – |
| CC(C)Oc1nn(C)c2cc(Nc3n[nH]c4cccnc34)ccc12 | 70.9 | – | – |
| Cn1nc(OCC2CCCCO2)c2ccc(Nc3n[nH]c4cccnc34)cc21 (centres undefined) | 100 | – | – |
| Cn1nnc2ccc(Nc3n[nH]c4cccnc34)cc21 | 72.4 | 1430 | – |
| Cn1nc(C(=O)NC2CC(F)(F)C2)c2ccc(Nc3n[nH]c4cccnc34)cc21 | 52.2 | 116 | – |
| Fc1ccc(Nc2n[nH]c3cccnc23)cc1Cl | – | – | fraction unbound [2]: 0.028; CLhep predicted [3]: 12.1 mL/min/kg; IC50 (Cytochrome P450 1A2): < 100 nM; fraction unbound [9]: 0.017 |
| CCn1nc(C)c2cc(Nc3n[nH]c4cccnc34)ccc21 | 78.3 | 95.1 | – |
| Cn1nc(C(=O)N2CC[C@@H](F)C2)c2ccc(Nc3n[nH]c4cccnc34)cc21 | 41.9 | 907 | – |
| Cn1nc(C2CC2)c2ccc(Nc3n[nH]c4nccnc34)cc21 | 101 | 19.8 | fraction unbound [2]: 0.035; CLhep predicted [3]: 22.4 mL/min/kg; IC50 (Cytochrome P450 1A2): 480 nM; fold induction [7]: 2.3; fraction unbound [9]: 0.03 |
| Cn1nc(C(=O)N2CCCC2)c2ccc(Nc3n[nH]c4cccnc34)cc21 | 41.6 | 827 | – |
| Cc1nn(CC2CCC2)c2ccc(Nc3n[nH]c4cccnc34)cc12 | 93.2 | 46.8 | – |
| Cn1nc(CC(F)(F)F)c2ccc(Nc3n[nH]c4cccnc34)cc21 | 62.7 | 95.5 | – |
| Cc1cc(COc2nn(C)c3cc(Nc4n[nH]c5cccnc45)ccc23)on1 | 107 | – | – |
| Cn1nc(C(=O)N2CCC(F)(F)C2)c2ccc(Nc3n[nH]c4cccnc34)cc21 | 57.8 | 289 | – |
| CCc1nn(C)c2cc(Nc3n[nH]c4cccnc34)ccc12 | 94.5 | 37.9 | – |
| CCn1nc(Cl)c2cc(Nc3n[nH]c4cccnc34)ccc21 | 67 | 815 | – |
| Cc1nn(C2CCCC2)c2ccc(Nc3n[nH]c4cccnc34)cc12 | 93.8 | 265 | – |
| Cn1nc(C2(C)CC2)c2ccc(Nc3n[nH]c4cccnc34)cc21 | 83.7 | 67.9 | – |
| Cc1nn(C(C)C)c2cc(Nc3n[nH]c4cccnc34)ccc12 | 62 | 9890 | – |
| Cc1nn(C)c2ccc(Nc3n[nH]c4cccnc34)cc12 | 105 | 345 | – |
| Cn1nc(C(=O)N2CCC(F)(F)CC2)c2ccc(Nc3n[nH]c4cccnc34)cc21 | 89.5 | 498 | – |

| SMILES | Emax [1] [%] | EC50 ([10]; read-out: EC50) [nM] | also measured |
| --- | --- | --- | --- |
| FC(F)(F)Cn1nc(C2CC2)c2ccc(Nc3n[nH]c4cccnc34)cc21 | – | – | EC50 ([10]; cho): Not Active |
| [2H]C([2H])([2H])Cn1nc(C2CC2)c2ccc(Nc3n[nH]c4cccnc34)cc21 | – | 36.2 | – |
| Cn1nc(C(=O)N2CC[C@H](F)C2)c2ccc(Nc3n[nH]c4cccnc34)cc21 | 55.5 | 764 | – |
| CC(C)COc1nn(C)c2cc(Nc3n[nH]c4cccnc34)ccc12 | 86.7 | – | – |
| c1cnc2c(Nc3ccc4c(C5CC5)n[nH]c4c3)n[nH]c2c1 | 76.5 | 452 | fraction unbound [2]: 0.014; CLhep predicted [3]: 30.8 mL/min/kg; IC50 (Cytochrome P450 1A2): 280 nM; fold induction [7]: 13.5; fraction unbound [9]: 0.031 |
| [2H]C([2H])([2H])Cn1nc(C2CC2)c2ccc(Nc3n[nH]c4ncccc34)cc21 | – | 160 | – |
| Cn1nc(C(=O)NC2CC(F)C2)c2ccc(Nc3n[nH]c4cccnc34)cc21 (centres undefined) | 74 | 794 | – |
| Cc1nnc2cc(Nc3n[nH]c4cccnc34)ccn12 | – | – | EC50 ([10]; cho): Not Active |
| Cc1nnc2ccc(Nc3n[nH]c4cccnc34)cn12 | – | – | EC50 ([10]; cho): Not Active |
| Cc1nn(C)c2cc(Nc3n[nH]c4cccnc34)ccc12 | 98 | 78.1 | fraction unbound [2]: 0.089; CLhep predicted [3]: 18.6 mL/min/kg; IC50 (Cytochrome P450 1A2): < 100 nM; fold induction [7]: 25; fraction unbound [9]: 0.058 |
| Cn1nc(C2CC2)c2ncc(Nc3n[nH]c4cccnc34)cc21 | 75 | 468 | – |
| Cn1nc(C2CC2)c2ccc(Nc3n[nH]c4ncccc34)cc21 | 94.8 | 43.2 | fraction unbound [2]: 0.031; CLhep predicted [3]: 16.1 mL/min/kg; IC50 (Cytochrome P450 1A2): 2600 nM; fold induction [7]: 2.6; fraction unbound [9]: 0.03 |
| Cn1nc(OC2CCOCC2)c2ccc(Nc3n[nH]c4cccnc34)cc21 | 85.1 | – | – |
| Cn1ccc2cc(Nc3n[nH]c4cccnc34)ccc21 | 83.8 | 3590 | – |
| Cn1ncc2cc(Nc3n[nH]c4cccnc34)ccc21 | 110 | 870 | fraction unbound [2]: 0.127; CLhep predicted [3]: 40.1 mL/min/kg; IC50 (Cytochrome P450 1A2): 530 nM; fold induction [7]: 28; fraction unbound [9]: 0.118 |
| Cc1c2ccc(Nc3n[nH]c4cccnc34)cc2nn1CC1CCC1 | – | – | EC50 ([10]; cho): Not Active |
| CCn1nc(C2CC2)c2ccc(Nc3n[nH]c4cccnc34)cc21 | 36.2 | 1210 | Emax ([1]; tested as the 2H-labelled form): 97.4% |
| Cn1cnc2ccc(Nc3n[nH]c4cccnc34)cc21 | 54.6 | > 10000 | – |
| CN1CCC(Oc2nn(C)c3cc(Nc4n[nH]c5cccnc45)ccc23)CC1 | 88.3 | 1880 | – |
| Cn1nc(C(F)(F)F)c2ccc(Nc3n[nH]c4cccnc34)cc21 | 77.5 | 119 | – |
| Cn1nc(C2(C)CC2)c2ccc(Nc3n[nH]c4nccnc34)cc21 | 94.8 | 24.9 | – |
| Cn1ncc2ccc(Nc3n[nH]c4cccnc34)cc21 | 105 | 257 | fraction unbound [2]: 0.061; CLhep predicted [3]: 10.7 mL/min/kg; IC50 (Cytochrome P450 1A2): 110 nM; fold induction [7]: 154; fraction unbound [9]: 0.093 |
| Cc1c2ccc(Nc3n[nH]c4cccnc34)cc2nn1C1CCCC1 | – | – | EC50 ([10]; cho): Not Active |
